This passage reports IC50 results from publication PMC7585637 (Biomolecules & Therapeutics, 2020).

pIC50: −log10 of the molar value.

In this test the target is T1, SIRT1 (Homo sapiens, UniProt Q96EB6).
T1 sequence (Q96EB6 2-747): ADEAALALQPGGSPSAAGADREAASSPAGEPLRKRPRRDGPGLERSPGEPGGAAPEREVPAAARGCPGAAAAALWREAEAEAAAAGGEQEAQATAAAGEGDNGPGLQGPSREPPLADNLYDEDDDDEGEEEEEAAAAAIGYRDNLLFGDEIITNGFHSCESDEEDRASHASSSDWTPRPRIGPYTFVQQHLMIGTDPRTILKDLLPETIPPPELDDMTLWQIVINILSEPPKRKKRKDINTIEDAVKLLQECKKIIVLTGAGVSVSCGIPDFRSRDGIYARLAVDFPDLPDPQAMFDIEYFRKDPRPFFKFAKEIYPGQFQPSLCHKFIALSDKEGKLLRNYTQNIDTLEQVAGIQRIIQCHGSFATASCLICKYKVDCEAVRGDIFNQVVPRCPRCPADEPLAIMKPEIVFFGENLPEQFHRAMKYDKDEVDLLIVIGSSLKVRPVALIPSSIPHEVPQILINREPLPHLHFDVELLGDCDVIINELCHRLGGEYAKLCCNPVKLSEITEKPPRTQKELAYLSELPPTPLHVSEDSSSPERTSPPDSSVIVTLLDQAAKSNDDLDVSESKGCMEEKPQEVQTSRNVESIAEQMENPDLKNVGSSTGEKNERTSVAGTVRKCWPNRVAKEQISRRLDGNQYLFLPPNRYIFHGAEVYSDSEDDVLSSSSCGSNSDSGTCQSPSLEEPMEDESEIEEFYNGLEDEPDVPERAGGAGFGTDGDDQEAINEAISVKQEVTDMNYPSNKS
Kind of test: Fluor-de-Lys SIRT1 fluorometric deacetylase assay. It is filed as biochemical.

In turn, `CC(C)(C)c1cc(C=C2C(=O)NC(=S)NC2=O)cc(C(C)(C)C)c1O` [MHY2256, 5-(3,5-Di-tert-butyl-4-hydroxybenzylidene)-2-thioxodihydropyrimidine-4,6(1H,5H)-dione] gave a pIC50 of 5.99.

Broadly, the pIC50 is −log10 of the IC50, conventionally taken in molar units. Read a low pIC50 as a large IC50.
